The source of these data is patent US20250281424A1 (New York Blood Center, Inc, priority 2020, published 2025).

In this assay the target is T1, human PF4 (Homo sapiens, UniProt P02776).
T1 construct: PF4 is a 70 amino acid, lysine-rich 7.8 kDa platelet-specific protein; made in house; host or cells: Escherichia coli BL21DE3 pLysS (pT7-7) and/or Drosophila S2 cells
T1 sequence (P02776 32-101): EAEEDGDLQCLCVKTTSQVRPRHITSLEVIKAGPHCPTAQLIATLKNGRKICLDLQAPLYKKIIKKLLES
In words: Inhibition of PF4 tetramer formation (BS3 cross-linking, SDS-PAGE). The assay is classed as biochemical. To be noted: for inhibition at 1 µM: 1 μM inhibitor; for inhibition at 1 µM / inhibition at 3 µM: read-out: % inhibition of PF4 tetramer formation at single concentration of inhibitor; for inhibition at 3 µM: 3 μM inhibitor (column A). The procedure, abridged:
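Recombinant human wild-type PF4 (E. coli-expressed, heparin-purified), 10 μg/ml in PBS, incubated with compound 15 min at 37° C or 60 min at room temperature, then cross-linked with 0.2 mM BS3 for 30 min at room temperature. Reducing 12% SDS-PAGE; bands quantified as % tetramer, trimer, dimer, monomer versus compound-free control.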

For the compound `CC(=O)C1C(=O)c2ccc(Oc3ccc4c(n3)C(=O)C(C(C)=O)C4=O)cc2C1=O` (centres unmarked) [Example 330, 6-acetyl-2-[(2-acetyl-1,3-dioxo-2,3-dihydro-1H-inden-5-yl)oxy]-5H,6H,7H-cyclopenta[b]pyridine-5,7-dione], the inhibition at 1 µM stood at 6% and the inhibition at 3 µM came to 22%.
The matching figures for `CC[C@H](C)[C@H](NC(=O)C1C(=O)c2ccc(Oc3ccc4c(c3)C(=O)C(C(=O)N[C@H](C(=O)OC)[C@@H](C)CC)C4=O)cc2C1=O)C(=O)OC` (stereo partly drawn) [Example 331, methyl (2S,3S)-2-({5-[(2-{[(2S,3S)-1-methoxy-3-methyl-1-oxopentan-2-yl]carbamoyl}-1,3-dioxo-2,3-dihydro-1H-inden-5-yl)oxy]-1,3-dioxo-2,3-dihydro-1H-inden-2-yl}formamido)-3-methylpentanoate]: 37% and 66%.
In the same order, the values of `CC[C@H](C)[C@H](NC(=O)C1C(=O)c2ccc(C(=O)c3ccc4c(c3)C(=O)C(C(=O)N[C@H](C(=O)OC)[C@@H](C)CC)C4=O)cc2C1=O)C(=O)OC` (stereo partly drawn) [Example 332, methyl (2S,3S)-2-{[5-(2-{[(2S,3S)-1-methoxy-3-methyl-1-oxopentan-2-yl]carbamoyl}-1,3-dioxo-2,3-dihydro-1H-indene-5-carbonyl)-1,3-dioxo-2,3-dihydro-1H-inden-2-yl]formamido}-3-methylpentanoate] are 5% and 13%.
Regarding `CC[C@H](C)[C@H](NC(=O)C1C(=O)c2ccc(S(=O)(=O)c3ccc4c(c3)C(=O)C(C(=O)N[C@H](C(=O)OC)[C@@H](C)CC)C4=O)cc2C1=O)C(=O)OC` (stereo partly drawn) [Example 333, methyl (2S,3S)-2-({5-[(2-{[(2S,3S)-1-methoxy-3-methyl-1-oxopentan-2-yl]carbamoyl}-1,3-dioxo-2,3-dihydro-1H-inden-5-yl)sulfonyl]-1,3-dioxo-2,3-dihydro-1H-inden-2-yl}formamido)-3-methylpentanoate], the inhibition at 1 µM was determined as 15% and the inhibition at 3 µM was found to be 21%.
In the same order, the values of `CCNC(=O)C1C(=O)c2ccc(Oc3ccc4c(c3)C(=O)C(C(=O)NCC)C4=O)cc2C1=O` (centres unmarked) [Example 334, N-ethyl-5-{[2-(ethylcarbamoyl)-1,3-dioxo-2,3-dihydro-1H-inden-5-yl]oxy}-1,3-dioxo-2,3-dihydro-1H-indene-2-carboxamide] are 27% and 40%.
In the same order, the values of `CCNC(=O)C1C(=O)c2ccc(C(=O)c3ccc4c(c3)C(=O)C(C(=O)NCC)C4=O)cc2C1=O` (centres unmarked) [Example 335, N-ethyl-5-[2-(ethylcarbamoyl)-1,3-dioxo-2,3-dihydro-1H-indene-5-carbonyl]-1,3-dioxo-2,3-dihydro-1H-indene-2-carboxamide] are 23% and 39%.
In the same order, the values of `CCNC(=O)C1C(=O)c2ccc(S(=O)(=O)c3ccc4c(c3)C(=O)C(C(=O)NCC)C4=O)cc2C1=O` (centres unmarked) [Example 336, N-ethyl-5-{[2-(ethylcarbamoyl)-1,3-dioxo-2,3-dihydro-1H-inden-5-yl]sulfonyl}-1,3-dioxo-2,3-dihydro-1H-indene-2-carboxamide] are 25% and 35%.
Regarding `O=C(c1ccc2c(c1)C(=O)C(C(=O)[C@@H]1CCNC1)C2=O)c1ccc2c(c1)C(=O)C(C(=O)[C@H]1CCCN1)C2=O` (stereo partly drawn) [Example 349, 5-{1,3-dioxo-2-[(3R)-pyrrolidine-3-carbonyl]-2,3-dihydro-1H-indene-5-carbonyl}-2-[(2R)-pyrrolidine-2-carbonyl]-2,3-dihydro-1H-indene-1,3-dione], the inhibition at 1 µM was determined as 2% and the inhibition at 3 µM stood at 27%.
In the same order, the values of `O=C1c2ccc(S(=O)(=O)c3ccc4c(c3)C(=O)C(C(=O)[C@H]3CCCN3)C4=O)cc2C(=O)C1C(=O)[C@@H]1CCNC1` (stereo partly drawn) [Example 350, 5-({1,3-dioxo-2-[(3R)-pyrrolidine-3-carbonyl]-2,3-dihydro-1H-inden-5-yl}sulfonyl)-2-[(2R)-pyrrolidine-2-carbonyl]-2,3-dihydro-1H-indene-1,3-dione] are 18% and 39%.
In the same order, the values of `CC(C)[C@@H](N)C(=O)C1C(=O)c2ccc(Oc3ccc4c(c3)C(=O)C(C(=O)[C@H](N)C(C)C)C4=O)cc2C1=O` (stereo partly drawn) [Example 351, 2-[(2R)-2-amino-3-methylbutanoyl]-5-({2-[(2R)-2-amino-3-methylbutanoyl]-1,3-dioxo-2,3-dihydro-1H-inden-5-yl}oxy)-2,3-dihydro-1H-indene-1,3-dione] are 12% and 21%.
In the same order, the values of `CC(C)[C@@H](N)C(=O)C1C(=O)c2ccc(C(=O)c3ccc4c(c3)C(=O)C(C(=O)[C@H](N)C(C)C)C4=O)cc2C1=O` (stereo partly drawn) [Example 352, 2-[(2R)-2-amino-3-methylbutanoyl]-5-{2-[(2R)-2-amino-3-methylbutanoyl]-1,3-dioxo-2,3-dihydro-1H-indene-5-carbonyl}-2,3-dihydro-1H-indene-1,3-dione] are 35% and 78%.
Regarding `CC(C)[C@@H](N)C(=O)C1C(=O)c2ccc(S(=O)(=O)c3ccc4c(c3)C(=O)C(C(=O)[C@H](N)C(C)C)C4=O)cc2C1=O` (stereo partly drawn) [Example 353, 2-[(2R)-2-amino-3-methylbutanoyl]-5-({2-[(2R)-2-amino-3-methylbutanoyl]-1,3-dioxo-2,3-dihydro-1H-inden-5-yl}sulfonyl)-2,3-dihydro-1H-indene-1,3-dione], the inhibition at 1 µM amounted to 22% and the inhibition at 3 µM came out at 37%.
In the case of `CC(C)C[C@@H](N)C(=O)C1C(=O)c2ccc(C(=O)c3ccc4c(c3)C(=O)C(C(=O)[C@H](N)CC(C)C)C4=O)cc2C1=O` (stereo partly drawn) [Example 354, 2-[(2R)-2-amino-4-methylpentanoyl]-5-{2-[(2R)-2-amino-4-methylpentanoyl]-1,3-dioxo-2,3-dihydro-1H-indene-5-carbonyl}-2,3-dihydro-1H-indene-1,3-dione], the inhibition at 1 µM was determined as 26% and the inhibition at 3 µM stood at 32%.
The matching figures for `CC(C)C[C@@H](N)C(=O)C1C(=O)c2ccc(S(=O)(=O)c3ccc4c(c3)C(=O)C(C(=O)[C@H](N)CC(C)C)C4=O)cc2C1=O` (stereo partly drawn) [Example 355, 2-[(2R)-2-amino-4-methylpentanoyl]-5-({2-[(2R)-2-amino-4-methylpentanoyl]-1,3-dioxo-2,3-dihydro-1H-inden-5-yl}sulfonyl)-2,3-dihydro-1H-indene-1,3-dione]: 23% and 61%.
The matching figures for `O=C1c2ccc(Oc3ccc4c(c3)C(=O)C(C(=O)[C@H]3CCCN3)C4=O)cc2C(=O)C1C(=O)[C@@H]1CCNC1` (stereo partly drawn) [Example 356, 5-({1,3-dioxo-2-[(3R)-pyrrolidine-3-carbonyl]-2,3-dihydro-1H-inden-5-yl}oxy)-2-[(2R)-pyrrolidine-2-carbonyl]-2,3-dihydro-1H-indene-1,3-dione]: 18% and 55%.
Take `CC(C)C[C@@H](N)C(=O)C1C(=O)c2ccc(Oc3ccc4c(c3)C(=O)C(C(=O)[C@H](N)CC(C)C)C4=O)cc2C1=O` (stereo partly drawn) [Example 357, 2-[(2R)-2-amino-4-methylpentanoyl]-5-({2-[(2R)-2-amino-4-methylpentanoyl]-1,3-dioxo-2,3-dihydro-1H-inden-5-yl}oxy)-2,3-dihydro-1H-indene-1,3-dione]: the inhibition at 1 µM was determined as 39% and the inhibition at 3 µM came to 74%. The 50% inhibitory concentration (IC50) – broadly, the concentration that gives 50% inhibition – (read-out: IC50 of PF4 tetramer formation inhibition) came to 1350 nM.
Regarding `O=C(NCC1CCS(=O)(=O)C1)C1C(=O)c2ccc(S(=O)(=O)c3ccc4c(c3)C(=O)C(C(=O)NCC3CCS(=O)(=O)C3)C4=O)cc2C1=O` (centres unmarked) [Example 358, N-[(1,1-dioxo-1λ^6-thiolan-3-yl)methyl]-5-[(2-{[(1,1-dioxo-1λ^6-thiolan-3-yl)methyl]carbamoyl}-1,3-dioxo-2,3-dihydro-1H-inden-5-yl)sulfonyl]-1,3-dioxo-2,3-dihydro-1H-indene-2-carboxamide], the inhibition at 1 µM is 24% and the inhibition at 3 µM stood at 46%.
In the case of `O=C(c1ccc2c(c1)C(=O)C(C(=O)NCC1CCS(=O)(=O)C1)C2=O)c1ccc2c(c1)C(=O)C(C(=O)NCC1CCS(=O)(=O)C1)C2=O` (centres unmarked) [Example 359, N-[(1,1-dioxo-1λ^6-thiolan-3-yl)methyl]-5-(2-{[(1,1-dioxo-1λ^6-thiolan-3-yl)methyl]carbamoyl}-1,3-dioxo-2,3-dihydro-1H-indene-5-carbonyl)-1,3-dioxo-2,3-dihydro-1H-indene-2-carboxamide], the inhibition at 1 µM was found to be 34% and the inhibition at 3 µM was found to be 45%.
For `O=C(NC1CCS(=O)(=O)C1)C1C(=O)c2ccc(S(=O)(=O)c3ccc4c(c3)C(=O)C(C(=O)NC3CCS(=O)(=O)C3)C4=O)cc2C1=O` (centres unmarked) [Example 360, N-(1,1-dioxo-1λ^6-thiolan-3-yl)-5-({2-[(1,1-dioxo-1λ^6-thiolan-3-yl)carbamoyl]-1,3-dioxo-2,3-dihydro-1H-inden-5-yl}sulfonyl)-1,3-dioxo-2,3-dihydro-1H-indene-2-carboxamide], the inhibition at 1 µM stood at 23% and the inhibition at 3 µM was found to be 59%.
In the same order, the values of `O=C(c1ccc2c(c1)C(=O)C(C(=O)NC1CCS(=O)(=O)C1)C2=O)c1ccc2c(c1)C(=O)C(C(=O)NC1CCS(=O)(=O)C1)C2=O` (centres unmarked) [Example 361, N-(1,1-dioxo-1λ^6-thiolan-3-yl)-5-{2-[(1,1-dioxo-1λ^6-thiolan-3-yl)carbamoyl]-1,3-dioxo-2,3-dihydro-1H-indene-5-carbonyl}-1,3-dioxo-2,3-dihydro-1H-indene-2-carboxamide] are 9% and 34%.
